# In patent US4496551A (priority 1983, dated 1985):
# Assays:
# Helminthosporium maydis = assay: southern corn leaf blight control on corn seedlings; type: in vivo; details: Bipolaris maydis, 168 h
# Summary of the method: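 Corn seedlings were sprayed to run-off with 100 ppm compound (6% acetone, 250 ppm TREM 014), inoculated next day with H. maydis spores, then kept 24 h at 20° in saturated humidity and 7 more days in a growth room. Lesions were rated as disease score.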
# Pythium aphanadermatum [1] = assay: Pythium control on coated corn seeds; type: in vivo; details: 504 h, 2 gm/kg seed, 49° F. 2 weeks then 70° F. 1 week
# Protocol: Several compounds of the previous examples were incorporated into a proprietary formulation and used to coat corn seeds at a rate of 2 gm/kg seed. After being thoroughly coated, the seeds were allowed to air dry at room temperature. The seeds were then planted into soil amended with a mixture of the fungus Pythium aphanadermatum, sand, and corn meal at a rate sufficient to kill most untreated seeds. The seeds were held at 49° F. for 2 weeks and then at 70° F. for 1 additional week. After this time disease ratings were made.
# [2] = test system: Puccinia recondita var. tritici; assay: wheat leaf rust control on wheat seedlings; type: in vivo; details: for pest or weed control at 100 ppm: sprayed day before inoculation
# Summary of the method: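 Compounds at 100 ppm (6% acetone, 250 ppm polyhydric alcohol ester surfactant in water) sprayed to run-off on wheat seedlings; inoculated next day with P. recondita spores. Kept 24 h at saturated humidity, 20°, then 7 days in growth room before rust pustule rating.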
# Rhizoctonia solani = assay: rice sheath blight control on rice seedlings; type: in vivo; details: Rhizoctonia solani, 168 h, 7 days
# Summary of the method: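 Rice seedlings sprayed to run-off with 100 ppm compound suspension (6% acetone, 250 ppm surfactant), then inoculated next day with bran/mycelium of Rhizoctonia solani. After 7 days in a growth room, sheath blight disease was rated.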
# Uromyces phaseoli = assay: bean rust control on bean seedlings; type: in vivo; details: 20 ppm
# Protocol: Compounds of the previous examples were again dissolved in acetone in an amount equal to 6% of the final volume and then suspended at a concentration of 20 ppm in purified water containing 250 ppm of the surfactant TREM 014 (polyhydric alcohol esters). This suspension was sprayed to the point of run-off on bean seedlings. The following day, the plants were inoculated with a spore suspension of the fungus Uromyces phaseoli, causal agent of bean rust, and incubated in a saturated humidity chamber at 20° for 24 hours and then in a greenhouse for 7 days. Disease ratings were then made. Treated plants from successful treatments had few or no rust pustules in contrast to untreated plants which were covered with rust pustules.
# 5 Phytophthora species = type: cell-based; details: 200.0 ppm in agar, 22° C., 6 days; controlled = radial growth 1 mm or less
# Cercospora arachidicola = assay: peanut early leafspot control on peanut seedlings; type: in vivo; details: Mycosphaerella arachidis, 336 h
# Summary of the method: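 Compounds dissolved in acetone (6% of final volume) and suspended at 100 ppm in water with 250 ppm TREM 014, sprayed to run-off on seedlings. Cercospora arachidicola inoculated next day; 24 h saturated humidity at 27°, then 14 days growth room before disease and leafspot rating.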
# Pyricularia oryzae = assay: whole plant or invertebrate; type: in vivo; details: 168 h, read-out: % Control of Rice Blast
# Monilinia fructicola = assay: stone fruit brown rot colony growth inhibition on canned peach halves; type: cell-based; details: 120 h, dipped 3 minutes, five days, percent growth inhibition of colonies, read-out: % Control Brown Rot
# Excerpt: Several compounds of the previous examples were again dissolved in acetone in an amount equal to 5% of the final volume and then suspended at a concentration of 100 ppm in purified water containing 700 ppm of the surfactant TREM 014 (polyhydric alcohol esters). Canned peach halves were dipped in this suspension for three minutes and then placed to air dry in sterile containers. Upon drying, the peach halves were inoculated with two pieces of Monilinia fructicola, causal agent of stone fruit brown rot, mycelium and then incubated in the sterile containers for five days. At that time the radii of the colonies' growth were measured on each peach. […] Percent disease contol (percent growth inhibition of colonies on treated peaches as compared to that of colonies on untreated peaches) is expressed in the table below.
# Pythium aphanadermatum [3] = assay: Pythium control on coated cotton seeds; type: in vivo; details: 168 h, 2 gm/kg seed, 1 week
# Excerpt: Several compounds of the previous examples were incorporated into a proprietary formulation and used to coat cotton seeds at a rate of 2 gm/kg seed. After being thoroughly coated, the seeds were allowed to air dry at room temperature. The cotton seeds were then planted into soil amended with the fungus Pythium aphanadermatum, sand, and corn meal at a rate sufficient to kill most untreated seeds. The seeds were held at room temperature for 1 week, after which time disease ratings were made.
# Venturia inaequalis = assay: apple scab control on apple seedlings; type: in vivo; details: Venturia inaequalis
# Summary of the method: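 Apple seedlings sprayed to run-off with 100 ppm compound suspension (6% acetone, 250 ppm TREM 014 surfactant). Inoculated next day with Venturia inaequalis spores; 24 hours at 20° in saturated humidity, then 10-12 days in growth room. Scab lesions compared with untreated plants.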
# Erysiphe cichoracearum = assay: cucumber powdery mildew control on cucumber seedlings; type: in vivo; details: Golovinomyces cichoracearum, 168 h, 7 days
# Summary of the method: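 Compounds at 100 ppm in water with 6% acetone and 250 ppm TREM 014 surfactant, sprayed to run-off on cucumber seedlings. Inoculation with Erysiphe cichoracearum spores the following day; disease rated after 7 days in a growth room against untreated plants.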
# Phytophthora infestans = assay: whole plant or invertebrate; type: in vivo; details: Phytophthora infestans, in Solanum lycopersicum, 168 h, read-out: % Control of Tomato Late Blight
# cucumber seedlings = assay: phytotoxicity on cucumber seedlings; type: in vivo; design: key: G: growth reduction; H: hormonal effects; details: 100 ppm
# Erysiphe graminis = assay: barley powdery mildew control on barley seedlings; type: in vivo; details: Blumeria graminis, 168 h; 100 ppm, 7 days
# Protocol: Several compounds of the previous examples were again dissolved in acetone in an amount equal to 6% of the final volume and then suspended at a concentration of 100 ppm in purified water containing 250 ppm of the surfactant TREM 014 (polyhydric alcohol esters). This suspension was sprayed to the point of run-off on barley seedlings. The following day, the plants were inoculated with a spore suspension of the fungus Erysiphe graminis, causal agent of barley powdery mildew, and incubated in a growth room for 7 days. Disease ratings were then made. Treated plants had little or no powdery mildew in contrast to untreated plants which were covered with powdery mildew.
# peanut seedlings = assay: phytotoxicity on peanut seedlings; type: in vivo; design: key: B: Phytotoxic burn; details: 100 ppm
# Protocol: Compounds of the previous examples were again dissolved in acetone in an amount equal to 6% of the final volume and then suspended at a concentration of 100 ppm in purified water containing 250 ppm of the surfactant TREM 014 (polyhydric alcohol esters). This suspension was sprayed to the point of run-off on peanut seedlings. The following day, the plants were inoculated with a spore suspension of Cercospora arachidicola, causal agent of peanut early leafspot, and incubated in a saturated humidity chamber at 27° for 24 hours and then in a growth room for an additional 14 days, when disease ratings were made. Treated plants from successful treatments had few or no leafspots while the untreated plants had numerous leafspots on each leaf.
Structure (SMILES),pest or weed control at 100 ppm (Helminthosporium maydis),pest or weed control at 2000 mg/kg (Pythium aphanadermatum [1]),pest or weed control at 100 ppm [2],pest or weed control at 100 ppm (Rhizoctonia solani),% Control Bean Rust (Uromyces phaseoli),No. of 5 Phytophthora species controlled in vitro (5 Phytophthora species),pest or weed control at 100 ppm (Cercospora arachidicola),pest or weed control at 100 ppm (Pyricularia oryzae),inhibition of growth at 100 ppm (Monilinia fructicola),pest or weed control at 2000 mg/kg (Pythium aphanadermatum [3]),pest or weed control at 100 ppm (Venturia inaequalis),pest or weed control at 100 ppm (Erysiphe cichoracearum),pest or weed control at 100 ppm (Phytophthora infestans),Phytotoxicity (growth reduction or hormonal effects) (cucumber seedlings),pest or weed control at 100 ppm (Erysiphe graminis),pest or weed control at 400 ppm ([2]; 400 ppm),pest or weed control at 400 ppm (Venturia inaequalis; 400 ppm),Phytotoxic burn (peanut seedlings)
"C[Si](C)(Cn1ccnc1)c1ccc(-c2ccccc2)cc1 [(1,1'-Biphenyl-4-yl)dimethyl(1H-imidazol-1-ylmethyl)silane]",90%,32%,100%,0%,100%,3,100%,0%,83%,18%,80%,100%,50%,–,–,–,–,–
"C[Si](C)(Cn1ccnc1)c1ccc(Cl)cc1Cl [(2,4-Dichlorophenyl)dimethyl(1H-imidazol-1-ylmethyl)silane]",70%,–,90%,0%,83%,5,100%,0%,100%,–,100%,100%,0%,H,100%,–,–,–
C[Si](C)(Cn1ccnc1)c1ccc(C(F)(F)F)cc1 [Dimethyl(1H-imidazol-1-ylmethyl)(4-trifluoromethylphenyl)silane],–,–,–,–,–,–,36%,–,–,–,–,100%,–,–,100%,100%,60%,B
C[Si](C)(Cn1ccnc1)c1ccc(F)cc1 [Dimethyl(4-fluorophenyl)(1H-imidazol-1-ylmethyl)silane],0%,15%,80%,0%,–,–,60%,0%,–,0%,0%,100%,0%,G,–,–,–,B
